Results on nine molecules are retold here after ChEMBL document CHEMBL5465560, “Selectivity Literature for EUbOPEN Chemogenomic Library” (2024).

The target in experiment [1] is T1, Mitogen-activated protein kinase kinase kinase 5 (Homo sapiens) (UniProt Q99683).
T1 sequence (whole entry): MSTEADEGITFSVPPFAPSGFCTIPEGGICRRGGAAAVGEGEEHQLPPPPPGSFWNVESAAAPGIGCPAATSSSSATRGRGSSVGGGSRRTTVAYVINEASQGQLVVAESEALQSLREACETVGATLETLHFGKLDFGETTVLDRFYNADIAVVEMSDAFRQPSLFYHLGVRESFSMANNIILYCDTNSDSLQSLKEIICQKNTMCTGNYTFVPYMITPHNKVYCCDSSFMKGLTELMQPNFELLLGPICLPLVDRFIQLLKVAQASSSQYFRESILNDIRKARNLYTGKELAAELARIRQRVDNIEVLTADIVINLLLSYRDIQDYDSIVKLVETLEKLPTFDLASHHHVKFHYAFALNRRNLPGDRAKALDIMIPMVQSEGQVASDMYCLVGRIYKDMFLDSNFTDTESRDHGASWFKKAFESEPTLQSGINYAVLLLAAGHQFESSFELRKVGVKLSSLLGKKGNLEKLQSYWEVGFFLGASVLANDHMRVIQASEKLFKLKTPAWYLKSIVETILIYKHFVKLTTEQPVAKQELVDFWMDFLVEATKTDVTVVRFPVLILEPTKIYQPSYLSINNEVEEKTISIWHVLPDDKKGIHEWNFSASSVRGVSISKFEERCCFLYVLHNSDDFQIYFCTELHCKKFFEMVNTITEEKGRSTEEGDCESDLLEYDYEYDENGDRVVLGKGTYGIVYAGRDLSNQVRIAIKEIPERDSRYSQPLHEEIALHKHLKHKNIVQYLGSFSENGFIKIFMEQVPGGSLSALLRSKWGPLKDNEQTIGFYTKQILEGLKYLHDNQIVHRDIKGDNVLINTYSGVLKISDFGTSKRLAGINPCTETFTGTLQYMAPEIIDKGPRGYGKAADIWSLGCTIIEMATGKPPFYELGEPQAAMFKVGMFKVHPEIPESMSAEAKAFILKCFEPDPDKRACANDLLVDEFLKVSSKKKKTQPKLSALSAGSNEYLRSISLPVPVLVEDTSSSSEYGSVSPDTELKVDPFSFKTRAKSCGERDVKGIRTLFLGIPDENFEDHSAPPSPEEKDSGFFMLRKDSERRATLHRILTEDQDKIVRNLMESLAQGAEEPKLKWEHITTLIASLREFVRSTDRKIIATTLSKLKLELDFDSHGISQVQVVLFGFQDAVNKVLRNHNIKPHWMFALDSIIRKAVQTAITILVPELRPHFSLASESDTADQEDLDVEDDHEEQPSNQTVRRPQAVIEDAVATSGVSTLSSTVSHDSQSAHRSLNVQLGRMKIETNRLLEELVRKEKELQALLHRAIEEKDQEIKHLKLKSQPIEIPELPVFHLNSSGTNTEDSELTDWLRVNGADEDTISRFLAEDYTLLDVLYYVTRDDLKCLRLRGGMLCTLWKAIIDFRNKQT
Put plainly: Selectivity interaction (Upstate Kinase Profiler service (Millipore)) EUB0000056c MAP3K5. As to conditions: at 1 µM.

Experiment [2] addresses Receptor-type tyrosine-protein kinase FLT3 (Homo sapiens) (UniProt P36888). Put plainly: Selectivity interaction (Ambit KINOMEscan and KiNATiv profiling in Jurkat cells) EUB0000090b FLT3. It counts as cell-based. To be noted: at 1 µM.
For experiment [3], the target named is Ribosomal protein S6 kinase alpha-6 (Homo sapiens, UniProt Q9UK32). Put plainly: Selectivity interaction (KinomeScan (DiscoverX)) EUB0000045b RPS6KA6. As to conditions: at 1 µM.
In experiment [4] the target is Serine/threonine-protein kinase PAK 4 (Homo sapiens, UniProt O96013). Put plainly: Selectivity interaction (KinomeScan (DiscoverX)) EUB0000666a PAK4. To be noted: at 10 µM.
Experiment [5] deals with Ribosomal protein S6 kinase alpha-1 (Homo sapiens, UniProt Q15418). Put plainly: Selectivity interaction (KinomeScan (DiscoverX)) EUB0000607a RPS6KA1. As to conditions: at 10 µM.
Experiment [6] deals with Calcium/calmodulin-dependent protein kinase kinase 2 (Homo sapiens) (UniProt Q96RR4). Put plainly: Selectivity interaction (ActivX KiNativ screen (kinase selectivity in THP-1 cell lysates)) EUB0000639a CAMKK2. As to conditions: lysate, at 1 µM. It counts as subcellular.
In experiment [7] the target is T2, Megakaryocyte-associated tyrosine-protein kinase (Homo sapiens) (UniProt P42679).
T2 sequence (whole entry): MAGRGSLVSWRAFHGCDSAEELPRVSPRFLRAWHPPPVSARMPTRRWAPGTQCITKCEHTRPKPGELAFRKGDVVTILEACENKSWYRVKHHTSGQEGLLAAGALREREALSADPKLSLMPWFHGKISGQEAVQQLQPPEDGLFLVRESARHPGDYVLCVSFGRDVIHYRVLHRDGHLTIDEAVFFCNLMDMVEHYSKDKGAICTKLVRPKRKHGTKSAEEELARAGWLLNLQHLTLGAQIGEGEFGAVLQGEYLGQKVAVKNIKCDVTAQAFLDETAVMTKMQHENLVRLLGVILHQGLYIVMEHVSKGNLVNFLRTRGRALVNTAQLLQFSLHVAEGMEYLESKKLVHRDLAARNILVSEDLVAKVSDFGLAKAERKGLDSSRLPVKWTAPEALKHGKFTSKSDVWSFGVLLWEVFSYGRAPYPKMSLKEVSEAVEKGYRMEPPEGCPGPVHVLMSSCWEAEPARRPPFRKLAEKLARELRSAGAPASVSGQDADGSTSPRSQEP
Put plainly: Selectivity interaction (KinomeScan (DiscoverX)) EUB0000229b MATK. As to conditions: at 10 µM.

The target in experiment [8] is Calcium/calmodulin-dependent protein kinase type II subunit alpha (Homo sapiens, UniProt Q9UQM7). Put plainly: Selectivity interaction (Kinase panel (KiNativ target engagement assay in Jurkat cells)) EUB0001635a CAMK2A. It counts as cell-based. To be noted: Selectivity number of off-targets 0.0, Selectivity number of targets 233.0, Source Knowledge https://www.sciencedirect.com/science/article/pii/S2451945619300674?via%3Dihub, at 1 µM.

Experiment [9] has as its target Vascular endothelial growth factor receptor 3 (Homo sapiens, UniProt P35916). Put plainly: Selectivity interaction (KinomeScan (DiscoverX)) EUB0000618a FLT4. As to conditions: at 10 µM.
Experiment [10] deals with Proto-oncogene tyrosine-protein kinase ROS (Homo sapiens) (UniProt P08922). Put plainly: Selectivity interaction (KinomeScan (DiscoverX)) EUB0000618a ROS1. To be noted: at 10 µM.
Chain of Proto-oncogene tyrosine-protein kinase ROS (Homo sapiens) (P08922 whole entry): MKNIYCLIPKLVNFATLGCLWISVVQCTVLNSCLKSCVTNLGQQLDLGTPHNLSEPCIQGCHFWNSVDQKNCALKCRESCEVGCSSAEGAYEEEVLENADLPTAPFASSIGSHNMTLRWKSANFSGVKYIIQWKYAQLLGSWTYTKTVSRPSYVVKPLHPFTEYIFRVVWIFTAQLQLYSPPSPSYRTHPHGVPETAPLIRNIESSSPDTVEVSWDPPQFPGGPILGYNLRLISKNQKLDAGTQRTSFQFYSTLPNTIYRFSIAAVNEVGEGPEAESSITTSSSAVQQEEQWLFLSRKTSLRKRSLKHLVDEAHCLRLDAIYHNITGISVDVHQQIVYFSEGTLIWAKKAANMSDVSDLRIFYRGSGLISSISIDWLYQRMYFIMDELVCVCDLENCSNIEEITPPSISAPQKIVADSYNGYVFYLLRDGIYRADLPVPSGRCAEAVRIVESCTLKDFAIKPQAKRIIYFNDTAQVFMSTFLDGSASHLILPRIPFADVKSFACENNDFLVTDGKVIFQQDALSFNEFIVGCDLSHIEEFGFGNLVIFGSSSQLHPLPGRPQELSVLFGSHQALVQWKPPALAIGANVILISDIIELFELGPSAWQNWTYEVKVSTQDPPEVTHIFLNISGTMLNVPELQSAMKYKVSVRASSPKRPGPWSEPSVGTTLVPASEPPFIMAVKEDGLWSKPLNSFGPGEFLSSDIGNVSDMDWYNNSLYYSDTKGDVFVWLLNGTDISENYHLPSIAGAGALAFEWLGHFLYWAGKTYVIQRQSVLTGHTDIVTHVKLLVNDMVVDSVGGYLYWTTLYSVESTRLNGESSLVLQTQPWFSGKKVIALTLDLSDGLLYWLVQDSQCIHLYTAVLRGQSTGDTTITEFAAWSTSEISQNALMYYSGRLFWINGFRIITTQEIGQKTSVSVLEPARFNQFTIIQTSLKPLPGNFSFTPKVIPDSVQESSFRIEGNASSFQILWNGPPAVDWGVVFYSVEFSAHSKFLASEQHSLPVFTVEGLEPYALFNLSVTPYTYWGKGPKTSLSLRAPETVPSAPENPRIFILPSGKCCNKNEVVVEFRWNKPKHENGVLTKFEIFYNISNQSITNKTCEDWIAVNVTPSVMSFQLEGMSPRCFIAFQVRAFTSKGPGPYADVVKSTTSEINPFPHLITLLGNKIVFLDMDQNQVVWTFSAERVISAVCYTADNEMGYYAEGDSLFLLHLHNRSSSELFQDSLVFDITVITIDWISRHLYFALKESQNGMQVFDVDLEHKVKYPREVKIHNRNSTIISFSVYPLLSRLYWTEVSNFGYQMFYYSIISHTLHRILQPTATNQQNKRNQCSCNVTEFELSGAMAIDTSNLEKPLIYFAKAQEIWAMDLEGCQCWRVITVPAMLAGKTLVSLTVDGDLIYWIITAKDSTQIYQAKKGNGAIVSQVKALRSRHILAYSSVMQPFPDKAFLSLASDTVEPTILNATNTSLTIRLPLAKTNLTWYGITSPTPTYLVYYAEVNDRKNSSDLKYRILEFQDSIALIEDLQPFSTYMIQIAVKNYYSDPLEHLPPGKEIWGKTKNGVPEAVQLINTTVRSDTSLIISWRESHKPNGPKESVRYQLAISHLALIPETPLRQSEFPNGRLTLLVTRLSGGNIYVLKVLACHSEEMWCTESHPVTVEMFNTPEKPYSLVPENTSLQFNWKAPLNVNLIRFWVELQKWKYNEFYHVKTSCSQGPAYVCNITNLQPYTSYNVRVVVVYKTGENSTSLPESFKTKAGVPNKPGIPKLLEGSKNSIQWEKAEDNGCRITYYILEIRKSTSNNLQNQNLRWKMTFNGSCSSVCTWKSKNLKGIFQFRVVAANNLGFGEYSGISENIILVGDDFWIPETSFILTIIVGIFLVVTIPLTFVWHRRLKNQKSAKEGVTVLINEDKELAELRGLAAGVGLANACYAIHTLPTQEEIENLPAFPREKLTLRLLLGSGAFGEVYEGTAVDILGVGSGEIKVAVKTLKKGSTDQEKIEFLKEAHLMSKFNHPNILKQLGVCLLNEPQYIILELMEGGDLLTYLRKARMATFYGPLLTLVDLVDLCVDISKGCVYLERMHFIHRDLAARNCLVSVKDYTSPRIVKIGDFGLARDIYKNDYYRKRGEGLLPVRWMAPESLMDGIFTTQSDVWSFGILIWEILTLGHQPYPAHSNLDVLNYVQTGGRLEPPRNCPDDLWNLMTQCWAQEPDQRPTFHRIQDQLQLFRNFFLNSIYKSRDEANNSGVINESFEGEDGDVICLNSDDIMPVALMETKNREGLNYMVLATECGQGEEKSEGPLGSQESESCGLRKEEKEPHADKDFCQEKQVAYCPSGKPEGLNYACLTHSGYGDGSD

Chain of Ribosomal protein S6 kinase alpha-6 (Q9UK32 whole entry): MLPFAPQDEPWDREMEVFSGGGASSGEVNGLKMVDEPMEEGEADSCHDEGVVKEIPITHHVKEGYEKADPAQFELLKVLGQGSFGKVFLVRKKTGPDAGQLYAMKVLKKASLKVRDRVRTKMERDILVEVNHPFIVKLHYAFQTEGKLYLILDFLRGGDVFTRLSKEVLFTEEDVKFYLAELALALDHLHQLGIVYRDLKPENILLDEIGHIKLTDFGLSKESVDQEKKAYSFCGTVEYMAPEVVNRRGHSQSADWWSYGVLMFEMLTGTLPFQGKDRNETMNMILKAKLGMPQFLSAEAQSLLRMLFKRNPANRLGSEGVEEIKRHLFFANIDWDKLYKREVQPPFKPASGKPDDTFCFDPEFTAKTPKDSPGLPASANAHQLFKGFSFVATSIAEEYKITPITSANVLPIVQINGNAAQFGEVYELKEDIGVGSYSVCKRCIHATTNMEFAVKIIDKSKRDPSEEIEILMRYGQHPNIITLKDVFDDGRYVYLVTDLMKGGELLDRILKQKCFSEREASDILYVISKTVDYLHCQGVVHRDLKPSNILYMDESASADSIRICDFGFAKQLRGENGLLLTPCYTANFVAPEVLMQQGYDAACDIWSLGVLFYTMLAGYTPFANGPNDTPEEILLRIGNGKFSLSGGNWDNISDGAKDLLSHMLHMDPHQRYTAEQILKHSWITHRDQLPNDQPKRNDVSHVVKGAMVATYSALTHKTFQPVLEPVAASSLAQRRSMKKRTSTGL
Chain of Calcium/calmodulin-dependent protein kinase type II subunit alpha (Q9UQM7 whole entry): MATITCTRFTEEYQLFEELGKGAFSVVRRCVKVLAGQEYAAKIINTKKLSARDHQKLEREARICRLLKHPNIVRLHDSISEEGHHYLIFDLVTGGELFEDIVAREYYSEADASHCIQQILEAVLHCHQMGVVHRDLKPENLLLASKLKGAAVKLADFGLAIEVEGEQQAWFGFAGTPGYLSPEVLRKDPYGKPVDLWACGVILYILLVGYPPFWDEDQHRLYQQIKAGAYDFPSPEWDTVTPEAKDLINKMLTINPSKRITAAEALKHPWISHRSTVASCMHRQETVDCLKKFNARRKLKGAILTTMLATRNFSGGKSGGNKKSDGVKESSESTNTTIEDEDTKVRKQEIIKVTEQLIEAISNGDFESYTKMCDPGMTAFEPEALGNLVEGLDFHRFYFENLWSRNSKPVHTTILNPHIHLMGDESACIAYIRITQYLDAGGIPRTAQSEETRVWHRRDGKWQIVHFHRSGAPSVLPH
Chain of Receptor-type tyrosine-protein kinase FLT3 (Homo sapiens) (P36888 whole entry): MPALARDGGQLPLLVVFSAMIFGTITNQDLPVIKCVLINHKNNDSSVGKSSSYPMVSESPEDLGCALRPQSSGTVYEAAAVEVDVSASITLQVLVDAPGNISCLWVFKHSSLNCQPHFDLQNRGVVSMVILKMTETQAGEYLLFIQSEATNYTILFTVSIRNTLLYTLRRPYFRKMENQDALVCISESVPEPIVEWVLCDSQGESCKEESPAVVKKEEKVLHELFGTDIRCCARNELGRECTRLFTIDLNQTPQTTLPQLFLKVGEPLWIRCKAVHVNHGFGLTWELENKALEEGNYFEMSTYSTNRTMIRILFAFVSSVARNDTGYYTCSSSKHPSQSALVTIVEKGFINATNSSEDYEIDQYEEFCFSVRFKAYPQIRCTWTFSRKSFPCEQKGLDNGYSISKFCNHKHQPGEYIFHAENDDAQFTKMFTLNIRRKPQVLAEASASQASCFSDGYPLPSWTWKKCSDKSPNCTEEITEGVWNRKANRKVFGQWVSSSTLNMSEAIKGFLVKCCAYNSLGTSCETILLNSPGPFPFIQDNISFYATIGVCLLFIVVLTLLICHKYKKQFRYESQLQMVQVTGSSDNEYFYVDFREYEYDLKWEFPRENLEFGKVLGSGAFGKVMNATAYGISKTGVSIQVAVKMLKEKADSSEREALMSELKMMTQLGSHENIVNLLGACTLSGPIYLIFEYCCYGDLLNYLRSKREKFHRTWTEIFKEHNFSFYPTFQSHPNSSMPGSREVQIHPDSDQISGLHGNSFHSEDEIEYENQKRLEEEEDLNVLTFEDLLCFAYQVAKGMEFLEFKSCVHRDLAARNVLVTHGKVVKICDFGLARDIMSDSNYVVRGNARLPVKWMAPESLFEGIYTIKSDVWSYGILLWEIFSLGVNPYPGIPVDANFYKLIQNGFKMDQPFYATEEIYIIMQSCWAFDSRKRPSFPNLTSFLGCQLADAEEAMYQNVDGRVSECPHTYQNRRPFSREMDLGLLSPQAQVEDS

The molecule `Cc1ccc(-c2ccc3c(ccc4sc5c(c43)NC[C@@H](C)NC5=O)n2)cn1` gave a % of inhibition in experiment [1] of 90%. For the molecule `CN(C)C/C=C/C(=O)Nc1ccc(C(=O)N2CCCC(Nc3ncc(Cl)c(-c4c[nH]c5ccccc45)n3)C2)cc1` (stereo not given), the % of control in experiment [2] came out at 94%.

In the case of `C=CC(=O)Nc1cc(-n2c(=O)ccc3cnc4ccc(-c5ccc(NS(C)(=O)=O)cc5)cc4c32)ccc1C`, in [3], the % of control was found to be 56%. With `O=C(NOC[C@H](O)CO)c1ccc(F)c(F)c1Nc1ccc(I)cc1F`, in [4], the % of control turned out to be 100%. In experiment [5], `CNC(=O)Nc1ccc(-c2nc(N3CC4CCC(C3)O4)c3cnn(C4CCC5(CC4)OCCO5)c3n2)cc1` gave a % of control of 100%. Regarding `CC[C@@H]1[C@H](F)C(=O)N[C@@H]1COc1nccc2cc(C(N)=O)c(OC)cc12` [ZIMLOVISERTIB], the % of inhibition in experiment [6] came to 12.1%. In experiment [7], `COc1cc(N(C)c2ccnc3ccc(C(F)(F)F)cc23)cc(OC)c1OC` registered a % binding of 81%. Regarding `C=CC(=O)Nc1ccc(C(=O)Nc2[nH]nc3c2CN(C(=O)N[C@H](CN(C)C)c2ccccc2)C3(C)C)cc1`, the % of engagement in experiment [8] came to 24.5%. As for `O[C@H]1CC[C@H](Nc2ncc3nc(Nc4c(F)cc(F)cc4F)n([C@H]4CCOC4)c3n2)CC1`, the % of control in experiment [9] is 55%; in experiment [10] it was 95%.
